Laboratory results as given in US20220202811A1, “TREATMENT FOR RETINOIC ACID RECEPTOR-RELATED ORPHAN RECEPTOR Ɣ (RORƔ)-DEPENDENT CANCERS” (The Regents of the University of California, priority 2019, published 2022).
“Also recorded” adds a separate entry of the source.

Columns and labels:
KP^f/fC organoids = assay: KP^f/fC organoid culture assay; assay type: cell-based, mouse
Experimental: Organoids from REM2-KP^f/fC were passaged at ˜1:2 as previously described (Boj et al., 2015). Briefly, organoids were isolated using Cell Recovery Solution (Corning 354253), then dissociated using Accumax Cell Dissociation Solution (Innovative Cell Technologies AM105), and plated in 20 μl matrigel (BD Biosciences, 354230) domes on a pre-warmed 48-well plate. After incubation at 37° C. for 5 min, domes were covered with 300 μl PancreaCult Organoid Growth Media (Stemcell Technologies). […] Organoids were grown in the presence of vehicle or SR2211 for 4 days, then imaged and quantified, n=3 independent wells plated per dose per treatment group.
KP^f/fC organoid were derived from the REM2-KP^f/fC mice, a germline genetically engineered mouse model for pancreatic ductal adenocarcinoma with the genotype of Msi2^eGFP/Kras^LSL-G12D/+; Pdx^CRE/+; p53^f/f. Briefly, tumors from 10-12-week-old end-stage REM2-KP^f/fC mice were harvested and dissociated into a single cell suspension. Tumor cells were stained with FC block then 0.2 μg/10^6 cells anti-EpCAM APC (eBioscience). REM2+/EpCAM+ (stem) and REM2−/EpCAM+ (non-stem) cells were sorted, resuspended in 20 μl Matrigel (BD Biosciences, 354230), and plated as a dome in a pre-warmed 48-well plate. After incubation at 37° C. for 5 min, domes were covered with 300 μl PancreaCult Organoid Growth Media (Stemcell Technologies). Organoids were imaged and quantified 6 days later. All images were acquired on a Zeiss Axiovert 40 CFL. Organoids were counted and measured using ImageJ 1.51s software.
The derived KP^f/fC organoid were maintained and passaged at ˜1:2. Briefly, organoids were isolated using Cell Recovery Solution (Corning 354253), then dissociated using Accumax Cell Dissociation Solution (Innovative Cell Technologies AM105), and plated in 20 μl Matrigel (BD Biosciences, 354230) domes on a pre-warmed 48-well plate. After incubation at 37° C. for 5 min, domes were covered with 300 μl PancreaCult Organoid Growth Media (Stemcell Technologies).
About 4,000 organoids from each of the non-germline and germline mouse models were plated as single cells in multi-well plates, as described above, and treated with JTE-151 for 4 days (FIG. 48). Organoid number and size were analyzed after treatment. […] In the quantification, different doses of JTE-151 were plotted along the horizontal axis, and the volume of organoids was expressed as relative to control along the vertical axis. […] Organoid volume was then analyzed. Different doses of JTE-151 were plotted along the horizontal axis, and the vertical axis represents relative organoid volume to control.

[1] = test system: primary patient-derived PDX1535 organoids; assay: PDX1535 organoid assay; assay type: cell-based, human
Experimental: PDX1535 organoids were derived from a patient of pancreatic cancer. Primary patient organoids were established by digesting patient-derived xenografts for 1 hour at 37° C. in RPMI containing 2.5% FBS, 5 mg/ml Collagenase II, and 1.25 mg/ml Dispase II, followed by passage through a […] mesh filter. Cells were plated at a density of 1.5×10^5 cells per 50 μl Matrigel. After domes were solidified, growth medium was added as follows: RPMI containing 50% Wnt3a conditioned media, 10% RSpondin1-conditioned media, 2.5% FBS, 50 ng/ml EGF, 5 mg/ml Insulin, 12.5 ng/ml hydrocortisone, and 14 μM Rho Kinase Inhibitor. After establishment, organoids were passaged and maintained. Briefly, organoids were isolated using Cell Recovery Solution (Corning 354253), then dissociated into single cell suspension with TrypLE Express (ThermoFisher 12604) supplemented with 25 μg/ml DNase I (Roche) and 14 μM Rho Kinase Inhibitor (Y-27632, Sigma). Cells were split 1:2 into 20 μl domes plated on pre-warmed 48-well plates. Domes were incubated at 37° C. for 5 min, then covered with human complete organoid feeding media without Wnt3a-conditioned media. […] The organoids were imaged and measured at the end of treatment. […] Moreover, the anti-cancer effect of JTE-151 was determined in an organoid assay using pancreatic cancer cells derived from mice bearing primary patient-derived xenografts.

[2] = test system: primary patient-derived PDX1356 organoids; assay: PDX1356 organoid assay; assay type: cell-based, human
Experimental: PDX1535 organoids were derived from a patient of pancreatic cancer. Primary patient organoids were established by digesting patient-derived xenografts for 1 hour at 37° C. in RPMI containing 2.5% FBS, 5 mg/ml Collagenase II, and 1.25 mg/ml Dispase II, followed by passage through a […] mesh filter. Cells were plated at a density of 1.5×10^5 cells per 50 μl Matrigel. After domes were solidified, growth medium was added as follows: RPMI containing 50% Wnt3a conditioned media, 10% RSpondin1-conditioned media, 2.5% FBS, 50 ng/ml EGF, 5 mg/ml Insulin, 12.5 ng/ml hydrocortisone, and 14 μM Rho Kinase Inhibitor. After establishment, organoids were passaged and maintained. Briefly, organoids were isolated using Cell Recovery Solution (Corning 354253), then dissociated into single cell suspension with TrypLE Express (ThermoFisher 12604) supplemented with 25 μg/ml DNase I (Roche) and 14 μM Rho Kinase Inhibitor (Y-27632, Sigma). Cells were split 1:2 into 20 μl domes plated on pre-warmed 48-well plates. Domes were incubated at 37° C. for 5 min, then covered with human complete organoid feeding media without Wnt3a-conditioned media.
As shown in FIGS. 65-66, the anti-cancer effect of JTE-151 was also tested using the organoid assay on primary patient-derived PDX1356 pancreatic cancer cells. […] The volume of organoids was expressed as relative to control.

[3] = 3 μM AZD-0284 + 0.025 nM gemcitabine
[4] = 6 μM AZD-0284 + 0.025 nM gemcitabine
[5] = 12 μM AZD-0284 + 0.025 nM gemcitabine

CC(=O)N1Cc2cc(S(C)(=O)=O)ccc2[C@@H]1C(=O)Nc1ccc(C(O)(C(F)(F)F)C(F)(F)F)cc1 [AZD-0284]
decrease in organoid volume compared to control (KP^f/fC organoids; [3]): 3.72 fold | organoid growth in volume (KP^f/fC organoids; 3 μM AZD-0284 in combination with 0.02 nM gemcitabine): visibly decreased; also recorded: inhibited | decrease in organoid volume compared to control (KP^f/fC organoids; [4]): 5.81 fold | organoid volume (KP^f/fC organoids; 6 μM AZD-0284 alone): visibly reduced; also recorded: inhibited | organoid volume (KP^f/fC organoids; 6 μM AZD-0284 and 0.025 nM gemcitabine combination): visibly reduced; also recorded: inhibited | decrease in organoid volume compared to control (KP^f/fC organoids; [5]): 10.53 fold | organoid growth (KP^f/fC organoids; AZD-0284 alone, 6 μM or 12 μM (FIG. 32)): significant inhibitory effect | decrease in organoid volume compared to control [1, 3]: 2.81 fold | organoid volume ([1]; 3 μM AZD-0284 and 0.04 nM gemcitabine): significant reduction; also recorded: significant inhibition | decrease in organoid volume compared to control [1, 4]: 4.72 fold | organoid growth ([1]; 6 μM AZD-0284 alone): visibly inhibited | organoid growth ([1]; 6 μM AZD-0284 in combination with 0.025 nM gemcitabine): visibly inhibited | decrease in organoid volume compared to control [1, 5]: 6.90 fold | organoid volume ([1]; AZD-0284 alone, 6 μM or 12 μM (FIG. 37)): significantly reduced | organoid volume ([2]; 3 μM AZD-0284 + 0.05 nM gemcitabine): significant reduction; also recorded: effectively inhibited | organoid volume ([2]; 3 μM AZD-0284 alone): significant reduction; also recorded: effectively inhibited | organoid volume ([2]; 6 μM AZD-0284 + 0.05 nM gemcitabine): significant reduction; also recorded: effectively inhibited | organoid volume ([2]; 6 μM AZD-0284 alone): significant reduction; also recorded: effectively inhibited

Cc1ccc(NC(=O)C[C@H](CCC(=O)O)c2noc([C@H]3C[C@@H](CC(C)(C)C)C3)c2C2CC2)c(Cl)c1 [JTE-151, (4S)-6-[(2-chloro-4-methylphenyl)amino]-4-{4-cyclopropyl-5-[cis-3-(2,2-dimethylpropyl)cyclobutyl]isoxazol-3-yl}-6-oxohexanoic acid]
organoid volume (KP^f/fC organoids; JTE-151 at 0.003 μM and 0.03 μM): reduced organoid volume, although not at a statistically significant level | organoid growth (KP^f/fC organoids; JTE-151 at 0.3 μM, 3 μM, 6 μM, and 9 μM): significantly inhibited | organoid volume ([1]; 3 μM JTE-151 alone (FIG. 63)): visibly reduced; also recorded: inhibited | organoid volume ([1]; 3 μM JTE-151 and 0.05 nM gemcitabine combination (FIG. 63)): visibly reduced; also recorded: inhibited | organoid growth ([1]; JTE-151 alone at 0.3 μM, 1 μM, and 3 μM (FIG. 64)): significant inhibition | organoid growth in volume ([2]; 0.3 μM JTE-151 + 0.05 nM gemcitabine): visibly decreased; also recorded: inhibited | organoid growth in volume ([2]; 0.3 μM JTE-151 alone): visibly decreased; also recorded: inhibited | organoid volume ([2]; 3 μM JTE-151 + 0.05 nM gemcitabine): visibly reduced; also recorded: inhibited | organoid volume ([2]; 3 μM JTE-151 alone): visibly reduced; also recorded: inhibited

OC(c1ccc(-c2ccc(CN3CCN(Cc4ccncc4)CC3)cc2)c(F)c1)(C(F)(F)F)C(F)(F)F [SR2211]
organoid formation (KP^f/fC organoids; SR2211 vs vehicle): decreased
